Converted amounts (≈) assume the structure as drawn.
Assays:
[1] = Toxicity in mouse assessed as 50% inhibition of protein synthesis; assay type: organism-based; settings: in vivo, read-out: Activity
Mus musculus = species on record: Mus musculus; assay: Skin toxicity in mouse; assay type: organism-based; settings: in vivo

CC1=C[C@H]2O[C@@H]3CC[C@](C)([C@@]2(CO)CC1)[C@]31CO1 [DEOXYVERRUCAROL]
IC50 [1]: 62.2 µg/mL (≈ 248 µM) | MED (Mus musculus): >= 500 ng

CC(=O)OC[C@]12C[C@H](OC(=O)CC(C)C)C(C)=C[C@H]1O[C@@H]1[C@H](O)[C@@H](OC(C)=O)[C@@]2(C)[C@]12CO2 [T-2 TOXIN]
IC50 [1]: 0.005 µg/mL (≈ 0.0107 µM) | MED (Mus musculus): 50.2 ng

CC1=C[C@H]2O[C@@H]3C[C@@H](O)[C@](C)([C@@]2(CO)CC1)[C@]31CO1 [VERRUCAROL]
IC50 [1]: 15.8 µg/mL (≈ 59.3 µM) | MED (Mus musculus): >= 500 ng
